Source: patent US9173875B2, “Treatment for nicotine-induced lung disease using peroxisome proliferator-activated receptor gamma agonists” (Los Angeles Biomedical Research Institute at Harbor-UCLA …, priority 2006, dated 2015)
Where two headings read alike, the source gives them in different places.

Key:
PTHrP receptor = target: T1, PTHrP receptor (Homo sapiens, UniProt Q03431); test: PTHrP receptor binding assay
T1 construct: 10-12 μg membrane protein; endogenous in cells; host or cells: WI38 human embryonic lung fibroblasts (inferred; the assay text only says membrane protein)
T1 sequence (Q03431 27-593): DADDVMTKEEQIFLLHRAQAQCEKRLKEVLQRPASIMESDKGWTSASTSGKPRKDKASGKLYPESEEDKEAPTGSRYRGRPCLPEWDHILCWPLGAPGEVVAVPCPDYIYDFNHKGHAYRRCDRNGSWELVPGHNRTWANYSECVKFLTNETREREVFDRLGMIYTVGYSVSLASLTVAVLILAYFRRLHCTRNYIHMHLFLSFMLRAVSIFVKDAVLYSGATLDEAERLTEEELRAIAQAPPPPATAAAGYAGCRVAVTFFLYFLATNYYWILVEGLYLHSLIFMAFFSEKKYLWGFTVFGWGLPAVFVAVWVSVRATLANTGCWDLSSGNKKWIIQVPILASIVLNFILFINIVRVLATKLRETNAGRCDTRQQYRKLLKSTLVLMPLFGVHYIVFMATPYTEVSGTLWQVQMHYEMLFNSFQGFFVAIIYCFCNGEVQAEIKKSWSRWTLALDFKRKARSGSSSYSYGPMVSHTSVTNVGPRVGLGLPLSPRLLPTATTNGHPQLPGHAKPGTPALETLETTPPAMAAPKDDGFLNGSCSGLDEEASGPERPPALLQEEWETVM
Protocol: The receptor binding assay was carried out as previously described (Torday and Rehan (2002) Am. J. Physiol. Lung Cell Mol. Physiol. 283: L130-L135; Torday and Rehan (2003) Cell Biochem Biophys 37: 235-246). The assay mixture, in a total volume of 0.1 ml, contained 50 mM Tris.HCl (pH 7.4), 2 mM dithiothreitol, 10 mM EDTA, 10 μg/ml each of protease inhibitors (leupeptin, pepstatin, antipain, and aprotinin), 0.5 mM phenylmethylsulfonyl fluoride, 10 mg/ml BSA, 5 mM MgCl2, […] [1251]-Tyr34-PTHrP-(1-34) (specific activity 1,064 Ci/mmol), 10-12 μg membrane protein, and 1×10-10 to 1×10^−6 M PTHrP-(1-34). Triplicate samples were incubated for 30 min at 30° C. Reactions were stopped by the addition of 0.1 ml of homogenization buffer containing 20 mg/ml of BSA and placed in ice-cold water for 30 min, followed by centrifugation at 15,000 g for 1 min. The supernatant was aspirated, and the pellet was counted for radioactive content with a gamma counter (model 1470; Wallace, Gaithersburg, Md.). Nonspecific binding was determined in the presence of 1 μM nonradioactive PTHrP-(1-34). Specific binding of [^125I]-Tyr34-PTHrP-(1-34) was calculated as total binding minus nonspecific binding and expressed as femtomoles per milligrams of protein. […] The effect of nicotine (1×10^−6 M) on PTHrP receptor binding was examined without and with the nACh receptor antagonists D-tubocurarine, α-bungarotoxin, or mecamylamine (1×10^−9 to 1×10^−6 M).

WI38 cells [1] = test: Triglyceride uptake assay ([3H]triolein) in WI38 cells; assay type: cell-based, human
Protocol: The human embryonic cell line WI38 was obtained from American Type Culture Collection (Rockville, Md.). Cells were grown in MEM plus 10% FBS at 37° C. in six-well plates, four-well slides, and 60- and 100-mm culture dishes as needed.
The method used to quantitate triglyceride uptake by fetal rat lung fibroblasts has been described previously (Torday et al. (1995) Biochim Biophys Acta 1254: 198-206). Briefly, culture medium was replaced with DMEM containing 20% adult rat serum mixed with [3H]triolein (5 μCi/ml). The cells were incubated at 37° C. in 5% CO2+balance air for 4 h. At the termination of the incubation, the medium was decanted, the cells were rinsed twice with 1 ml of ice-cold MEM, and the cells were removed from the culture plate after a 5- to 10-min incubation with 2 ml of a 0.05% trypsin solution. An aliquot of the cell suspension was taken for protein assay (Bradford (1976) Anal Biochem 72: 248-254), and the remaining cell suspension was extracted for neutral lipid content.

fetal ATII cells = test: Ex vivo ATII cell proliferation assay (tetrazolium dye) after in utero nicotine; design: species or system Sprague-Dawley rat
Protocol: Pathogen-free timed (embryonic day 0=day of mating) pregnant Sprague-Dawley rats (200-250 g body wt) were obtained from Charles River (Hollister, Calif.) at embryonic day 3 and allowed to acclimatize until embryonic day 6. […] The fetuses were extracted by cesarean section, and the lungs were snap frozen for later analysis or processed for ATII cell or fibroblast culture. […] Louis, Mo.; 0.25 mg/kg). All studies were approved by the Los Angeles Biomedical Research Institute Institutional Review Board and were conducted in accordance with the National Institutes of Health Guide for the Care and Use of Laboratory Animals. ATII cells were isolated using differential adherence in monolayer culture, as described previously (Battenburg et al. (1990) Biochim. Biophys. Acta 960: 441-456). Briefly, three to five […] used per preparation. The fetuses were delivered via cesarean section, and fetal lungs were placed in Hanks' balanced salt solution without calcium and magnesium. […] A Teflon stirring bar was used to further dissociate the lungs by mechanical disruption of the tissue during incubation in a 37° C. water bath. After the tissue was dispersed into a unicellular suspension, the cells were pelleted at 500 g for 10 min at room temperature in a 50-ml polystyrene centrifuge tube. […] The cell suspension was then added to 75-cm^2 (T-75) culture flasks for 30-60 min to allow for differential adherence of lung fibroblasts. The unattached cells were then transferred to another T-75 culture flask for an additional 60 min. After this second culture period, the medium and nonadherent cells were removed from the flask and diluted with 1 vol of culture medium. This diluted suspension was cultured overnight in a T-75 culture flask at 37° C. in a CO2 incubator to allow the ATII cells to adhere. […] According to the manufacturer's protocol, cell proliferation was determined by the tetrazolium dye assay, which is based on the conversion of a tetrazolium salt to a red formazan product by living cells (Cell Proliferation Assay, Promega).

ATII cells [2] = test: Western analysis of CCT-α and SP-B in ATII cells treated in vitro; assay type: cell-based, rat
Protocol: Protein extraction and Western blot analysis for SP-B and choline phosphate cytidylyltransferase-α (CCT-α) were performed using standard methods. […] Equal amounts of the protein from the supernatant were dissolved in electrophoresis sample buffer and subjected to SDS-polyacrylamide (4-12% gradient) gel electrophoresis followed by electrophoretic transfer to a nitrocellulose membrane. The membrane was blocked with 5% milk in 1× Tris-buffered saline containing 0.1% Tween 20 for 1 h and then incubated with rabbit anti-human SP-B polyclonal antibody (1:1,000 dilution; Chemicon) overnight at 4° C. The antibody for CCT-α (1:2,000 dilution) was a kind gift from Dr. Mallampalli (University of Iowa, Iowa City, Iowa). Subsequently, the membrane was washed with 1× Tris-buffered saline+0.1% Tween 20 and incubated with a 1:3,000 dilution of anti-rabbit horseradish peroxidase-linked whole antibody immunoglobulin G (Amersham, Arlington Heights, Ill.) for 1 h at room temperature, washed again, and developed with a chemiluminescent substrate (ECL, Amersham) following the manufacturer's protocol. The density of the SP-B and CCT-α bands was quantified using a scanning densitometer (Eagle Eye, Stratagene).

ATII cells [3] = test: Western analysis of CCT-α and SP-B in ATII cells after in utero nicotine; assay type: in vivo, Sprague-Dawley rat
Protocol: Pathogen-free timed (embryonic day 0=day of mating) pregnant Sprague-Dawley rats (200-250 g body wt) were obtained from Charles River (Hollister, Calif.) at embryonic day 3 and allowed to acclimatize until embryonic day 6. […] The fetuses were extracted by cesarean section, and the lungs were snap frozen for later analysis or processed for ATII cell or fibroblast culture. […] Louis, Mo.; 0.25 mg/kg). All studies were approved by the Los Angeles Biomedical Research Institute Institutional Review Board and were conducted in accordance with the National Institutes of Health Guide for the Care and Use of Laboratory Animals. Protein extraction and Western blot analysis for SP-B and choline phosphate cytidylyltransferase-α (CCT-α) were performed using standard methods. […] Chemicon) overnight at 4° C. The antibody for CCT-α (1:2,000 dilution) was a kind gift from Dr. […] (University of Iowa, Iowa City, Iowa). […] The density of the SP-B and CCT-α bands was quantified using a scanning densitometer (Eagle Eye, Stratagene).

ATII cells [4] = conditions: rat, in vivo
fetal rat lung explants = test: In vitro ATII cell proliferation in lung explants (PCNA and SP-C labeling); assay type: cell-based
Protocol: Explants derived from three to five litters of rats were used for each experiment during the course of the studies. Lungs were harvested from fetal rats under sterile conditions. The lung tissue was chopped into −1-mm cubes and incubated in 0.5 ml of Waymouth's MB-252/1 medium containing penicillin (100 U/ml)-streptomycin (100 U/ml) and Fungizone (2.5 μg/ml) in six-well plates while rocking on an oscillating platform (3 cycles/min) in 5% CO2-95% air at 37° C. The explants were allowed to attach for 1-2 h.
Cultured ATII cells or explants were treated with nicotine under various experimental conditions (see below), and cell proliferation was determined by Cell Proliferation Assay (Promega) or dual PCNA and SP-C labeling, respectively (see above).

ATII cells [5] = test: Phospholipid synthesis ([3H]choline incorporation) by ATII cells treated in vitro; assay type: cell-based, rat
Protocol: Isolated ATII cells were cultured in DMEM+10% FBS in 6- and 96-well plates, 100-mm dishes, and T-75 flasks, as needed, and maintained at 37° C. in a humidified incubator containing 5% CO2-95% air. At 80-90% confluence, cells were processed for cell proliferation, differentiation, and metabolic studies (see below).
(§1) Incorporation of [methyl-3H]choline chloride (NEN Dupont) into saturated phosphatidylcholine was determined in monolayers of cultured explants and ATII cells. […] After incubation, explants and cells were washed three times with ice-cold PBS. The explants and the scraped cells were thoroughly homogenized, and the cellular lipids were extracted with chloroform-methanol (2:1) (Bligh and Dyer (1959) Can. J. Biochem. Physiol., 37: 911-917). The organic phase was dried under a stream of nitrogen at 60° C., resuspended in 0.5 ml of carbon tetrachloride containing 3.5 mg of osmium tetroxide, and left at room temperature for 15 min. The reaction mixture was redried under nitrogen and resuspended in 70 μl of chloroform-methanol (9:1, vol/vol). The lipid extracts were transferred to silica gel plates (Kodak, Rochester, N.Y.) and developed in a chloroform-methanolwater (65:25:4) solvent system. Pure dipalmitoyl phosphatidylcholine was used as the chromatographic standard. The developed plates were stained with bromothymol blue, blotted, and vacuum dried for 5 min at 90° C. Chromatogram spots corresponding to the migration of saturated phosphatidylcholine were scraped from the plates and counted by liquid scintillation spectrometry. The amounts of [methyl^3H]choline chloride incorporated into saturated phosphatidylcholine were expressed as disintegrations per minute per milligram of protein.

ATII cells [6] = test: Phospholipid synthesis ([3H]choline incorporation into saturated phosphatidylcholine) by ATII cells after in utero nicotine; assay type: in vivo, Sprague-Dawley rat
Protocol: as §1

[7] = test system: fetal alveolar type II (ATII) cells; test: In vivo ATII cell proliferation assay (PCNA and SP-C double labeling) after in utero nicotine; design: species or system Sprague-Dawley rat
WI38 cells [8] = test: Reversal of nicotine-induced LIF-to-MYF transdifferentiation in WI38 cells, Western analysis; conditions: GW9662 1×10^−5 M pretreatment; nicotine 1×10^−9 M 7 days
Protocol: The human embryonic cell line WI38 was obtained from the American Type Culture Collection (Rockville, Md.). Cells were grown in minimum essential medium (MEM) +10% fetal bovine serum at 37° C. in six-well plates, two well slides, and 60-mm and 100-mm culture dishes, as needed. […] Subsequently, the cells were treated with rosiglitazone (RGZ) (1×10^−5 M) (a PPARγ agonist), PTHrP (5×10^−7 M), or DBcAMP (1×10^−5 M) for 7 days, and the expression of PTHrP receptor, PPARγ, ADRP, calponin, and cSMA was determined by Western analysis and immunohistochemistry. Simultaneously, fibroblast function was characterized by measuring their capacity to take up triglycerides. Some experiments were performed in the presence of a specific PPARγ antagonist, GW9662. Medium containing fresh chemicals was added daily, and at the end of the experimental period the cells were processed as needed.
For Western blotting, cells were lysed using an extraction buffer [10 mM tris (hydroxymethyl) aminomethane (Tris, pH 7.5), 0.25 M sucrose, 1 mM EDTA, 5 mM benzamidine, 2 mM phenylmethylsulfonyl fluoride, and 10 (j.tg/ml each of pepstatin A, aprotinin, and leupeptin], and centrifuged at 140 g for 10 min (4° C.). Equal amounts of the protein (25 μg) from the supernatant were dissolved in electrophoresis sample buffer and were subjected to sodium dodecyl sulfate-polyacrylamide (4%-12% gradient) gel electrophoresis (SDS-PAGE) followed by electrophoretic transfer to a nitrocellulose memane. The nonspecific binding of antibody was blocked by washing with Tris-buffered saline (TBS) containing 0.1% Tween 20 (TBST) and 5% milk for 1 h. The blot was then subjected to two brief washes with TBST plus 0.5% Tween 20, incubated in TBST plus 0.1% Tween 20 and the specific primary antibodies (PPARγ 1:2000, Alexis Biochemicals, San Diego, Calif.; cSMA 1:50,000, Sigma, St. Louis, Mo.: ADRP 1:3000) overnight at 4° C. Blots were then washed in TBST plus 0.1% Tween 20 and then incubated for 1 h in secondary antibody, washed, and developed with a chemiluminescent substrate [enhanced chemiluminescence (ECL); Amersham, Arlington Heights, Ill.] following the manufacturer's protocol. The densities of the specific protein bands were quantified using a scanning densitometer (Eagle Eye II still video system, Stratagene, La Jolla, Calif.).

For `COc1cc2c3cc1Oc1cc(ccc1O)C[C@@H]1c4c(cc(OC)c(O)c4Oc4ccc(cc4)C[C@@H]3N(C)CC2)CC[N+]1(C)C` [D-tubocurarine], the “prevention of nicotine-induced decrease in PTHrP binding to its receptor” value (PTHrP receptor) was “prevented” and the “prevention of nicotine-induced decrease in triolein uptake” value (WI38 cells [1]) was “completely prevented”.
`CCCCC[C@H](O)/C=C/[C@H]1C(=O)C=C[C@@H]1C/C=C\CCCC(=O)O` [PGJ2, prostaglandin J2] was tested, and the “block of nicotine-induced increase in ATII proliferation” value (fetal ATII cells; rat, in vivo) was “almost completely blocked”, the “effect on nicotine-induced increase (CCT-α experiment)” value (ATII cells [2]) was “no effect” and the “effect on nicotine-induced increase in SP-B expression” value (ATII cells [2]) was “unaffected”. For the same molecule, the “effect on nicotine-induced increase (CCT-α experiment)” value (ATII cells [3]; rat, in vivo) was “no effect”, the “effect on nicotine-induced increase in SP-B protein expression” value (ATII cells [3]; rat, in vivo) was “no effect” and the “block of nicotine-induced alterations in ribose synthesis” value (ATII cells [4]) was “completely blocked”. The “prevention of nicotine-induced changes in de novo palmitate synthesis and acetyl-CoA labeling” value (ATII cells [4]) was “completely prevented”, the “block of nicotine-induced increase in ATII cell proliferation in lung explants” value (fetal rat lung explants) was “blocked” and the “effect on nicotine-induced increase in phospholipid synthesis” value (ATII cells [5]) was “no effect”. The “effect on nicotine-induced increase in phospholipid synthesis” value (ATII cells [6]; rat, in vivo) was “no effect” and the “block of nicotine-induced increase in ATII cell proliferation” value ([7]; rat, in vivo) was “completely blocked”.
In the case of `O=C(Nc1ccccc1)c1cc([N+](=O)[O-])ccc1Cl` [GW9662], the “block of the PGJ2 effect” value (fetal ATII cells; nicotine + PGJ2) is reported as “blocked”, the “effect on nicotine-induced increase (CCT-α experiment)” value (ATII cells [2]; PGJ2 alone or in combination with GW-9662, in vitro) is reported as “no effect” and the “effect on nicotine-induced increase in SP-B expression” value (ATII cells [2]; in vitro) is reported as “unaffected”. For the same molecule, the “effect on nicotine-induced increase (CCT-α experiment)” value (ATII cells [3]; PGJ2 alone or in combination with GW-9662, in vivo) was “no effect”, the “effect on nicotine-induced increase in SP-B protein expression” value (ATII cells [3]; concomitant treatment, in utero) was “no effect” and the “block of the PGJ2 effect in lung explants” value (fetal rat lung explants; nicotine 24 h + PGJ2) was “blocked”. The “effect on nicotine-induced increase in phospholipid synthesis” value (ATII cells [5]; concomitant PGJ2 alone or in combination with GW-9662, in vitro) was “no effect”, the “effect on nicotine-induced increase in phospholipid synthesis” value (ATII cells [6]; concomitant PGJ2 alone or in combination with GW-9662, in utero) was “no effect” and the “block of the PGJ2 effect on nicotine-induced increase in ATII cell proliferation” value ([7]; GW-9662 0.25 mg/kg pretreatment, nicotine + PGJ2) was “almost completely blocked”. The “block of the PGJ2 effect on nicotine-induced increase in ATII cell proliferation” value ([7]; in utero nicotine + PGJ2) was 70% and the “block of molecular protection by PTHrP, DBcAMP and RGZ against nicotine-induced LIF-to-MYF transdifferentiation (PPARγ, calponin)” value (WI38 cells [8]) was “completely blocked”.
For PTHrP-(7-34) amide, the “binding of radioactive ligand [125I]-Tyr34-PTHrP-(1-34)” value (PTHrP receptor; 1 μM) was “inhibited”.
α-bungarotoxin was tested, and the “prevention of nicotine-induced decrease in PTHrP binding to its receptor” value (PTHrP receptor) was “prevented” and the “prevention of nicotine-induced decrease in triolein uptake” value (WI38 cells [1]) was “completely prevented”.
With `CNC1(C)C2CCC(C2)C1(C)C` (centres unmarked) [mecamylamine] the “prevention of nicotine-induced decrease in PTHrP binding to its receptor” value (PTHrP receptor; pretreatment with nACh receptor antagonist, nicotine 1×10^−6 M) was “not” and the “prevention of nicotine-induced decrease in triolein uptake” value (WI38 cells [1]; nACh receptor antagonist 1×10^−9 or 1×10^−6 M) was “not”.
